Experimental data published in publication PMC8402619 (Viruses, 2021).

Assays:
[1] = Metabolism in cryopreserved human hepatocyte incubations; format: in vitro ADME
[2] = Renal clearance after 1 mg/kg intravenous, mouse; format: in vivo, male CD-1 mice; conditions: 1 mg/kg intravenously
CYP2C8 = biological target: T1, CYP2C8 (Homo sapiens, UniProt P10632); assay: Time-dependent CYP inhibition in pooled human liver microsomes; format: in vitro ADME
T1 sequence (P10632 1-490): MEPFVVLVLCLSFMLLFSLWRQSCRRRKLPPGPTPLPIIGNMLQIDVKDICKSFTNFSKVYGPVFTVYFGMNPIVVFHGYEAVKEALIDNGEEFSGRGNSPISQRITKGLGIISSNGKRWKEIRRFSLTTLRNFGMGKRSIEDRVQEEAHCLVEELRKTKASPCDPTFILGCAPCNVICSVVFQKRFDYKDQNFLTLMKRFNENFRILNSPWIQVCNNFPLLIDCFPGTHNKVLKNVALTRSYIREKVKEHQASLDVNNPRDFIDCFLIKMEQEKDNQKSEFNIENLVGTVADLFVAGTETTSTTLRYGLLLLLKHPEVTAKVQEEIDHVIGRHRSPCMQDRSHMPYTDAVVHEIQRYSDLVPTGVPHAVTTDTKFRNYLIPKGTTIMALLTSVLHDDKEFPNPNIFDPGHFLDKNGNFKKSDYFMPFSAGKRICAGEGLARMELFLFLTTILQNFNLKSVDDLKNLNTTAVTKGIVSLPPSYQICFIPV

CYP3A4 = assay: CYP induction in cryopreserved human hepatocytes; format: in vitro ADME; conditions: for mRNA Mean Fold Change ± SD CYP3A4: 48 h, n = 3 donors, vs DMSO vehicle
OCT1 = biological target: T2, OCT1 (Homo sapiens, UniProt O15245); assay: Inhibition of transporter-mediated probe uptake in CHO-K1-OCT1 cells; format: in vitro ADME
T2 construct: expressed in transfected cells; host or cells: CHO-K1
T2 sequence (O15245 1-554): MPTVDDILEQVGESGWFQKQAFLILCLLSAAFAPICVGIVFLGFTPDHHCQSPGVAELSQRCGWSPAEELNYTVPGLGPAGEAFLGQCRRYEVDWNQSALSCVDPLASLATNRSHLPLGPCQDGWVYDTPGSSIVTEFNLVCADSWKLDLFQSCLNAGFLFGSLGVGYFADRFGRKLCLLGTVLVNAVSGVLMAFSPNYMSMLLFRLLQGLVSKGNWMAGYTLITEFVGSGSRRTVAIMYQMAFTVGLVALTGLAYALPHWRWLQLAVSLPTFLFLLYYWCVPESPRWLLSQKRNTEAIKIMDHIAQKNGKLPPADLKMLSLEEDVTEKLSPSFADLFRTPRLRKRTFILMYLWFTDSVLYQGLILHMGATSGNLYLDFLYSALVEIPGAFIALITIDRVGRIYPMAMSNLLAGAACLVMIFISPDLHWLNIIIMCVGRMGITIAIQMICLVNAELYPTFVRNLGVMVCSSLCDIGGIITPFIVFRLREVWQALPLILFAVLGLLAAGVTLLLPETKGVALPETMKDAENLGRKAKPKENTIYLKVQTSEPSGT

OCT2 [3] = biological target: T3, OCT2 (Homo sapiens, UniProt O15244); assay: Inhibition of transporter-mediated probe uptake in CHO-K1-OCT2 cells; format: in vitro ADME
T3 construct: expressed in transfected cells; host or cells: CHO-K1
T3 sequence (O15244 1-555): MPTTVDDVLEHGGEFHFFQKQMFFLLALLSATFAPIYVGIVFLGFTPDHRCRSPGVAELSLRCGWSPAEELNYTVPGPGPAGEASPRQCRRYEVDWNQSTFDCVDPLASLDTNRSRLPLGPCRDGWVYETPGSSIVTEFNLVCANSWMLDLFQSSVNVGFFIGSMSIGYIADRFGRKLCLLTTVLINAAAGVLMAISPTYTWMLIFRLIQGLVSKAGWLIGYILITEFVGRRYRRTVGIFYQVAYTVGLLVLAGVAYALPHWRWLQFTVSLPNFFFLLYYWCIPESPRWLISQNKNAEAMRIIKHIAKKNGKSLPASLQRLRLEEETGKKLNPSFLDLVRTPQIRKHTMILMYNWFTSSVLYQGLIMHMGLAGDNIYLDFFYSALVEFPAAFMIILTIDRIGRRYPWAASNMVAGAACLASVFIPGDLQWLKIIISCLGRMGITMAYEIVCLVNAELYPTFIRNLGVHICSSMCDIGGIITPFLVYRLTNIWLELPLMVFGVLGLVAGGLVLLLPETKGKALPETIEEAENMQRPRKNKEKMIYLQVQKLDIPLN

OCT2 [4] = biological target: T3, OCT2; assay: Islatravir uptake as substrate, CHO-K1 vs CHO-K1-OCT2 cells; format: in vitro ADME
OAT3 = biological target: T4, OAT3 (Homo sapiens, UniProt Q8TCC7); assay: Islatravir uptake as substrate, MDCKII vs MDCKII-OAT3 cells; format: in vitro ADME
T4 construct: expressed in transfected cells; host or cells: MDCKII
T4 sequence (Q8TCC7 1-542): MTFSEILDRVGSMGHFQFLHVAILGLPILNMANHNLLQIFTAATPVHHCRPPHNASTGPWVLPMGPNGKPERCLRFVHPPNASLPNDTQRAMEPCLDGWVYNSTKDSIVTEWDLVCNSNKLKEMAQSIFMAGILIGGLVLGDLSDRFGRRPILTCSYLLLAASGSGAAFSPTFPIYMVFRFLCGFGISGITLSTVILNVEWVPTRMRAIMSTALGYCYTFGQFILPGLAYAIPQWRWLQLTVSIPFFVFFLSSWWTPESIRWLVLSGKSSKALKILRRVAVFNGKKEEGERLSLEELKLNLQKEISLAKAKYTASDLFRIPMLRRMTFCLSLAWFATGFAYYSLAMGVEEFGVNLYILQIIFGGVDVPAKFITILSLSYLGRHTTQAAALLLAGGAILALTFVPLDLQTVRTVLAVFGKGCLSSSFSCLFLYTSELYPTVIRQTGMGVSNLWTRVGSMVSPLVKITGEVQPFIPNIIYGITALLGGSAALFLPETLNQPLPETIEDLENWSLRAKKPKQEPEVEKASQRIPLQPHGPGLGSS

Question: Which metabolites observed [1] does the source give for `C#C[C@]1(CO)O[C@@H](n2cnc3c(N)nc(F)nc32)C[C@@H]1O` [Islatravir, 4′-Ethynyl-2-fluoro-2′-deoxyadenosine] here?
Answer: The metabolites observed was “no detectable metabolites”.

Question: What about the “Renal Excretion (% Total Plasma Clearance)” value [2] of the same molecule?
Answer: The value was 61%.

Question: And the CL renal ([2]; male, CD-1, plasma and urine, iv, urine 0-24 h)?
Answer: The CL renal was 15.4 mL/min/kg.

Question: And the time-dependent inhibition (CYP2C8; CYP2C8, pre-incubation of 10 and 50 µM for up to 30 min)?
Answer: Its time-dependent inhibition is “no time-dependent inhibition”.

Question: And the “DDI Potential” value (CYP2C8; CYP2C8 time dependent inhibition)?
Answer: Its value is “Low risk ^h”.

Question: And the IC50 (CYP2C8; time dependent, CYP2C8, read-out: Islatravir IC50)?
Answer: Its IC50 is over 50 µM.

Question: What about the “mRNA Mean Fold Change ± SD CYP3A4” value (CYP3A4; 0.1 µM) of the same molecule?
Answer: Its value is 0.6 ± 0.2.

Question: And the “mRNA Mean Fold Change ± SD CYP3A4” value (CYP3A4; 0.5 µM)?
Answer: Its value is 0.6 ± 0.2.

Question: And the “mRNA Mean Fold Change ± SD CYP3A4” value (CYP3A4; 1 µM)?
Answer: The value was 0.6 ± 0.2.

Question: And the “mRNA Mean Fold Change ± SD CYP3A4” value (CYP3A4; 5 µM)?
Answer: Its value is 0.5 ± 0.1.

Question: What about the “mRNA Mean Fold Change ± SD CYP3A4” value (CYP3A4; 10 µM) of the same molecule?
Answer: Its value is 0.6 ± 0.1.

Question: What about the “mRNA Mean Fold Change ± SD CYP3A4” value (CYP3A4; 20 µM) of the same molecule?
Answer: Its value is 0.1 ± 0.1.

Question: What about the “mRNA response relative to positive control” value (CYP3A4; CYP3A4, each tested concentration 0.1-20 µM) of the same molecule?
Answer: The value was “less than 20%”.

Question: What about the “enzyme activity, fold of solvent control” value (CYP3A4; CYP3A4 testosterone 6β-hydroxylation, all islatravir concentrations) of the same molecule?
Answer: Its value is at most 1.1 fold.

Question: And the IC50 (OCT1; OCT1-mediated uptake of metformin, read-out: Islatravir IC50)?
Answer: Its IC50 is over 300 µM.

Question: And the “Maximum Unbound Inlet Concentration (Iin,max,u) to IC50 Ratio” value (OCT1; OCT1, 60 mg dose)?
Answer: The value was under 0.035.

Question: And the “DDI Potential” value (OCT1; OCT1 inhibition, FDA, EMA, PMDA guidance)?
Answer: Its value is “Low risk”.

Question: What about the inhibition at 100 µM (OCT2 [3]; CHO-K1-OCT2 cells, probe metformin, 100 µM islatravir) of the same molecule?
Answer: Its inhibition at 100 µM is 15%.

Question: What about the IC50 (OCT2 [3]; OCT2-mediated metformin uptake, read-out: Islatravir IC50) of the same molecule?
Answer: The IC50 was over 100 µM.

Question: What about the “Maximum Unbound Plasma Concentration (Imax,u) to IC50 Ratio” value (OCT2 [3]; OCT2, 60 mg, Cmax 1.01 µM, fu,p 0.96) of the same molecule?
Answer: Its value is under 0.010 µM.

Question: What about the “DDI Potential” value (OCT2 [3]; OCT2 inhibition, FDA, EMA, PMDA guidance) of the same molecule?
Answer: Its value is “Low risk”.

Question: And the “Islatravir Uptake Transporter-Expressing Cells” value (OCT2 [4]; CHO-K1-OCT2, 1 µM [3H]islatravir, 5 min, mean ± SD, n = 3)?
Answer: The value was 0.79 ± 0.14 pmole/10^6 Cells.

Question: And the Fold-Difference (OCT2 [4]; OCT2, uptake into transporter-expressing cells to control cells, 5 min)?
Answer: Its Fold-Difference is 0.81.

Question: What about the “Islatravir Uptake Control Cells” value (OCT2 [4]; OCT2 row, CHO-K1 control cells, 1 µM [3H]islatravir, 5 min, mean ± SD, n = 3) of the same molecule?
Answer: Its value is 0.97 ± 0.01 pmole/10^6 Cells.

Question: What about the Conclusions (OCT2 [4]; OCT2 substrate assessment) of the same molecule?
Answer: The Conclusions was “Non-substrate”.

Question: What about the “Islatravir Uptake Transporter-Expressing Cells” value (OAT3; MDCKII-OAT3, 1 µM [3H]islatravir, 5 min, mean ± SD, n = 3) of the same molecule?
Answer: The value was 0.85 ± 0.06 pmole/10^6 Cells.

Question: And the Fold-Difference (OAT3; OAT3, uptake into transporter-expressing cells to control cells, 5 min)?
Answer: The Fold-Difference was 1.23.

Question: What about the “Islatravir Uptake Control Cells” value (OAT3; OAT3 row, MDCKII control cells, 1 µM [3H]islatravir, 5 min, mean ± SD, n = 3) of the same molecule?
Answer: Its value is 0.69 ± 0.07 pmole/10^6 Cells.

Question: What about the Conclusions (OAT3; OAT3 substrate assessment) of the same molecule?
Answer: Its Conclusions is “Non-substrate”.
